{"source": "patent US8445510B2", "about": "“Fused bicyclic kinase inhibitors” (OSI Pharmaceuticals, LLC, priority 2011, dated 2013)", "key": {"[1]": {"target": "T1, Aurora B (Homo sapiens, UniProt Q96GD4)", "T1 construct": "HT-29 cells grown in complete growth media", "T1 sequence (Q96GD4 whole entry)": "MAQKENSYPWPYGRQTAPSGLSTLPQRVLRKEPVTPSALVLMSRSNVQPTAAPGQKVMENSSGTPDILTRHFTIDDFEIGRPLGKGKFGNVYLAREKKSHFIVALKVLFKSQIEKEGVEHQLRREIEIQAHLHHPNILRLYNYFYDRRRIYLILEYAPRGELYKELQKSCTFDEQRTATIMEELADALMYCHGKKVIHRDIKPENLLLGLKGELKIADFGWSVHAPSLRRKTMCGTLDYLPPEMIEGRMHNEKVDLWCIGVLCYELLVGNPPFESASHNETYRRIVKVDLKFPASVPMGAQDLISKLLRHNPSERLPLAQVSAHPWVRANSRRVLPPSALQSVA", "test": "Aurora B cell mechanistic assay (HT-29), phospho-Histone H3 (Ser10) ELISA", "type": "cell-based", "conditions": "HT-29 cell line; inhibition of phospho-Histone H3 (Ser10); at least duplicate experiments (italicized if single experiment); read-out: Aurora B mech IC50", "protocol": "The cellular activity of the compounds of the present invention against Aurora B may be determined by the following procedure. HT-29 cells grown in complete growth media (McCoy's 5A, 10% FCS, 1% L-glutamine) were plated into wells of a 96 well tissue culture plate (Falcon 3072) at a cell density of 4×10^4 cells/0.09 ml media/well. Cells were subsequently incubated overnight in a 5% CO2 humidified 37° C. incubator. The following day 10 μl of a 10× stock of test compound serially diluted in media was added to the cells and incubated for 1 h at 37° C. at which time Calyculin A (Cell Signaling #9902) was added at a concentration of 100 nM and cells incubated for an additional 30 minutes in a 5% CO2 humidified 37° C. incubator. Media was then aspirated and cells lysed using a Triton based lysis buffer. Lysates were transferred to a pre-coated anti-Histone H3 antibody coated plate supplied by Cell Signaling in their PathScan phospho-Histone H3 (Ser10) ELISA kit (#7155). After an overnight incubation with lysate the ELISA was continued following the manufacturer's instructions. Signal was measured on a Wallac Victor plate reader at 450 nm. DMSO control treated cells served as 100% signal and an Aurora B kinase inhibitor served as 100% inhibition. The percent inhibition of phospho-Histone H3 (Ser10) was expressed as % control. IC50 values were calculated from the percent control data using a standard four-parameter model.\nThe IC50 values of exemplary compounds of the present invention determined in a Aurora B cell mechanistic assay using the HT-29 cell line according to the procedures described herein in at least duplicate experiments are abbreviated as follows and are shown in Table 4: A, IC50≦0.05 μM; B, 0.05 μM<IC50≦0.2 μM; C, 0.2 μM<IC50≦1 μM; D, IC50>1 μM; ND, not determined. If only data from single experiments are available, the abbreviations are italicized. The Example # of Table 4 corresponds to the compound example number as illustrated in the Examples section."}, "[2]": {"test_system": "MKN45 cells", "test": "MKN45 cell proliferation assay (CellTiter-Glo)", "type": "cell-based", "conditions": "Homo sapiens, MKN-45, 72 h; MKN45 cell line; 3 days incubation; at least duplicate experiments; read-out: Prolif. IC50"}}, "data": [{"smiles": "COc1ccc(F)c(Cl)c1[C@@H](C)c1c[nH]c2ncc(-c3c[nH]nc3C)cc12", "note": "[Example 1, 3-[(1S)-1-(2-Chloro-3-fluoro-6-methoxyphenyl)ethyl]-5-(3-methyl-1H-pyrazol-4-yl)-1H-pyrrolo[2,3-b]pyridine]", "values": [{"measurement": "IC50", "setting": "[1]", "result": "200 to 1000", "unit": "nM"}, {"measurement": "IC50", "setting": "[2]", "result": "≤ 50", "unit": "nM"}]}, {"smiles": "COc1ccc(F)c(Cl)c1[C@@H](C)c1c[nH]c2ncc(-c3cn(C)nc3C)cc12", "note": "[Example 2, 3-[(1S)-1-(2-Chloro-3-fluoro-6-methoxyphenyl)ethyl]-5-(1,3-dimethyl-1H-pyrazol-4-yl)-1H-pyrrolo[2,3-b]pyridine]", "values": [{"measurement": "IC50", "setting": "[1]", "result": "50 to 200", "unit": "nM"}, {"measurement": "IC50", "setting": "[2]", "result": "50 to 200", "unit": "nM"}]}, {"smiles": "COc1ccc(F)c(Cl)c1[C@@H](C)c1c[nH]c2ncc(-c3cnn(C)c3C)cc12", "note": "[Example 3, 3-[(1S)-1-(2-Chloro-3-fluoro-6-methoxyphenyl)ethyl]-5-(1,5-dimethyl-1H-pyrazol-4-yl)-1H-pyrrolo[2,3-b]pyridine]", "values": [{"measurement": "IC50", "setting": "[1]", "result": "> 1000", "unit": "nM"}, {"measurement": "IC50", "setting": "[2]", "result": "≤ 50", "unit": "nM"}]}, {"smiles": "COc1ccc(F)c(Cl)c1[C@@H](C)c1c[nH]c2ncc(-c3c(C)nn(C)c3C)cc12", "note": "[Example 4, 3-[(1S)-1-(2-Chloro-3-fluoro-6-methoxyphenyl)ethyl]-5-(1,3,5-trimethyl-1H-pyrazol-4-yl)-1H-pyrrolo[2,3-b]pyridine]", "values": [{"measurement": "IC50", "setting": "[1]", "result": "> 1000", "unit": "nM"}, {"measurement": "IC50", "setting": "[2]", "result": "200 to 1000", "unit": "nM"}]}, {"smiles": "COc1ccc(F)c(Cl)c1[C@@H](C)c1c[nH]c2ncc(-c3c(C)nn(CC(C)(C)O)c3C)cc12", "note": "[Example 5, 1-(4-{3-[(1S)-1-(2-Chloro-3-fluoro-6-methoxyphenyl)ethyl]-1H-pyrrolo[2,3-b]pyridin-5-yl}-3,5-dimethyl-1H-pyrazol-1-yl)-2-methylpropan-2-ol]", "values": [{"measurement": "IC50", "setting": "[1]", "result": "> 1000", "unit": "nM"}, {"measurement": "IC50", "setting": "[2]", "result": "50 to 200", "unit": "nM"}]}, {"smiles": "COc1ccc(F)c(Cl)c1[C@@H](C)c1c[nH]c2ncc(-c3c(C)nn([C@H]4CC[C@H](O)CC4)c3C)cc12", "note": "[Example 6, trans-4-(4-{3-[(1S)-1-(2-Chloro-3-fluoro-6-methoxyphenyl)ethyl]-1H-pyrrolo[2,3-b]pyridin-5-yl}-3,5-dimethyl-1H-pyrazol-1-yl)cyclohexanol]", "values": [{"measurement": "IC50", "setting": "[1]", "result": "> 1000", "unit": "nM"}, {"measurement": "IC50", "setting": "[2]", "result": "≤ 50", "unit": "nM"}]}, {"smiles": "COc1ccc(F)c(Cl)c1[C@@H](C)c1c[nH]c2ncc(-c3cn(CC(C)(C)O)nc3C)cc12", "note": "[Example 7, 1-(4-{3-[(1S)-1-(2-Chloro-3-fluoro-6-methoxyphenyl)ethyl]-1H-pyrrolo[2,3-b]pyridin-5-yl}-3-methyl-1H-pyrazol-1-yl)-2-methylpropan-2-ol]", "values": [{"measurement": "IC50", "setting": "[1]", "result": "200 to 1000", "unit": "nM"}, {"measurement": "IC50", "setting": "[2]", "result": "≤ 50", "unit": "nM"}]}, {"smiles": "COc1ccc(F)c(Cl)c1[C@@H](C)c1c[nH]c2ncc(-c3cnn(CC(C)(C)O)c3C)cc12", "note": "[Example 8, 1-(4-{3-[(1S)-1-(2-Chloro-3-fluoro-6-methoxyphenyl)ethyl]-1H-pyrrolo[2,3-b]pyridin-5-yl}-5-methyl-1H-pyrazol-1-yl)-2-methylpropan-2-ol]", "values": [{"measurement": "IC50", "setting": "[1]", "result": "200 to 1000", "unit": "nM"}, {"measurement": "IC50", "setting": "[2]", "result": "≤ 50", "unit": "nM"}]}, {"smiles": "COc1ccc(F)c(Cl)c1[C@@H](C)c1c[nH]c2ncc(-c3cnn(C[C@H](O)CO)c3C)cc12", "note": "[Example 10, (2S)-3-(4-{3-[(1S)-1-(2-Chloro-3-fluoro-6-methoxyphenyl)ethyl]-1H-pyrrolo[2,3-b]pyridin-5-yl}-5-methyl-1H-pyrazol-1-yl)propane-1,2-diol]", "values": [{"measurement": "IC50", "setting": "[1]", "result": "200 to 1000", "unit": "nM"}, {"measurement": "IC50", "setting": "[2]", "result": "≤ 50", "unit": "nM"}]}, {"smiles": "CCc1c(-c2cnc3[nH]cc([C@H](C)c4c(OC)ccc(F)c4Cl)c3c2)cnn1CC(C)(C)O", "note": "[Example 11, 1-(4-{3-[(1S)-1-(2-Chloro-3-fluoro-6-methoxyphenyl)ethyl]-1H-pyrrolo[2,3-b]pyridin-5-yl}-5-ethyl-1H-pyrazol-1-yl)-2-methylpropan-2-ol]", "values": [{"measurement": "IC50", "setting": "[1]", "result": "> 1000", "unit": "nM"}, {"measurement": "IC50", "setting": "[2]", "result": "50 to 200", "unit": "nM"}]}, {"smiles": "CCc1nn(CC(C)(C)O)cc1-c1cnc2[nH]cc([C@H](C)c3c(OC)ccc(F)c3Cl)c2c1", "note": "[Example 12, 1-(4-{3-[(1S)-1-(2-Chloro-3-fluoro-6-methoxyphenyl)ethyl]-1H-pyrrolo[2,3-b]pyridin-5-yl}-3-ethyl-1H-pyrazol-1-yl)-2-methylpropan-2-ol]", "values": [{"measurement": "IC50", "setting": "[1]", "result": "> 1000", "unit": "nM"}, {"measurement": "IC50", "setting": "[2]", "result": "50 to 200", "unit": "nM"}]}, {"smiles": "COc1ccc(F)c(Cl)c1[C@@H](C)c1c[nH]c2ncc(-c3cnn([C@H]4CC[C@H](C(=O)N(C)C)CC4)c3C)cc12", "note": "[Example 14, Trans-4-(4-{3-[(1S)-1-(2-chloro-3-fluoro-6-methoxyphenyl)ethyl]-1H-pyrrolo[2,3-b]pyridin-5-yl}-5-methyl-1H-pyrazol-1-yl)-N,N-dimethylcyclohexanecarboxamide]", "values": [{"measurement": "IC50", "setting": "[1]", "result": "> 1000", "unit": "nM"}, {"measurement": "IC50", "setting": "[2]", "result": "≤ 50", "unit": "nM"}]}, {"smiles": "CNC(=O)[C@H]1CC[C@H](n2ncc(-c3cnc4[nH]cc([C@H](C)c5c(OC)ccc(F)c5Cl)c4c3)c2C)CC1", "note": "[Example 17, trans-4-(4-{3-[(1S)-1-(2-Chloro-3-fluoro-6-methoxyphenyl)ethyl]-1H-pyrrolo[2,3-b]pyridin-5-yl}-5-methyl-1H-pyrazol-1-yl)-N-methyl cyclohexanecarboxamide]", "values": [{"measurement": "IC50", "setting": "[1]", "result": "200 to 1000", "unit": "nM"}, {"measurement": "IC50", "setting": "[2]", "result": "≤ 50", "unit": "nM"}]}, {"smiles": "COc1ccc(F)c(Cl)c1[C@@H](C)c1c[nH]c2ncc(-c3cnn([C@H]4CC[C@H](C(N)=O)CC4)c3C)cc12", "note": "[Example 18, trans-4-(4-{3-[(1S)-1-(2-chloro-3-fluoro-6-methoxyphenyl)ethyl]-1H-pyrrolo[2,3-b]pyridin-5-yl}-5-methyl-1H-pyrazol-1-yl)cyclohexanecarboxamide]", "values": [{"measurement": "IC50", "setting": "[1]", "result": "200 to 1000", "unit": "nM"}, {"measurement": "IC50", "setting": "[2]", "result": "≤ 50", "unit": "nM"}]}, {"smiles": "Cc1c(-c2cnc3[nH]cc([C@H](C)c4c(OC(F)F)ccc(F)c4Cl)c3c2)cnn1C1CCNCC1", "note": "[Example 96, 3-{(1S)-1-[2-Chloro-6-(difluoromethoxy)-3-fluorophenyl]ethyl}-5-[5-methyl-1-(piperidin-4-yl)-1H-pyrazol-4-yl]-1H-pyrrolo[2,3-b]pyridine]", "values": [{"measurement": "IC50", "setting": "[2]", "result": "≤ 50", "unit": "nM"}]}, {"smiles": "CC(=O)N1CCC(n2ncc(-c3cnc4[nH]cc([C@H](C)c5c(OC(F)F)ccc(F)c5Cl)c4c3)c2C)CC1", "note": "[Example 97, 1-{4-[4-(3-{(1S)-1-[2-Chloro-6-(difluoromethoxy)-3-fluorophenyl]ethyl}-1H-pyrrolo[2,3-b]pyridin-5-yl)-5-methyl-1H-pyrazol-1-yl]piperidin-1-yl}ethanone]", "values": [{"measurement": "IC50", "setting": "[2]", "result": "≤ 50", "unit": "nM"}]}, {"smiles": "COc1ccc(F)c(Cl)c1[C@@H](C)c1c[nH]c2ncc(-c3cn([C@H]4CC[C@H](O)CC4)nc3OC)cc12", "note": "[Example 99, trans-4-(4-{3-[(1S)-1-(2-chloro-3-fluoro-6-methoxyphenyl)ethyl]-1H-pyrrolo[2,3-b]pyridin-5-yl}-3-methoxy-1H-pyrazol-1-yl)cyclohexanol]", "values": [{"measurement": "IC50", "setting": "[2]", "result": "≤ 50", "unit": "nM"}]}, {"smiles": "COc1nn([C@H]2CC[C@H](O)CC2)cc1-c1cnc2[nH]cc([C@H](C)c3c(OC(F)F)ccc(F)c3Cl)c2c1", "note": "[Example 100, trans-4-[4-(3-{(1S)-1-[2-chloro-6-(difluoromethoxy)-3-fluorophenyl]ethyl}-1H-pyrrolo[2,3-b]pyridin-5-yl)-3-methoxy-1H-pyrazol-1-yl]cyclohexanol]", "values": [{"measurement": "IC50", "setting": "[2]", "result": "≤ 50", "unit": "nM"}]}, {"smiles": "COc1ccc(F)c(Cl)c1[C@@H](CF)c1c[nH]c2ncc(-c3cnn([C@H]4CC[C@H](O)CC4)c3C)cc12", "note": "[Example 121, trans-4-(4-{3-[(1S)-1-(2-Chloro-3-fluoro-6-methoxyphenyl)-2-fluoroethyl]-1H-pyrrolo[2,3-b]pyridin-5-yl}-5-methyl-1H-pyrazol-1-yl)cyclohexanol]", "values": [{"measurement": "IC50", "setting": "[2]", "result": "≤ 50", "unit": "nM"}]}, {"smiles": "Cc1c(-c2cnc3[nH]cc([C@@H](CF)c4c(OC(F)F)ccc(F)c4Cl)c3c2)cnn1[C@H]1CC[C@H](O)CC1", "note": "[Example 123, trans-4-[4-(3-{(1R)-1-[2-chloro-6-(difluoromethoxy)-3-fluorophenyl]-2-fluoroethyl}-1H-pyrrolo[2,3-b]pyridin-5-yl)-5-methyl-1H-pyrazol-1-yl]cyclohexanol]", "values": [{"measurement": "IC50", "setting": "[2]", "result": "200 to 1000", "unit": "nM"}]}, {"smiles": "Cc1c(-c2cnc3[nH]cc([C@H](CF)c4c(OC(F)F)ccc(F)c4Cl)c3c2)cnn1[C@H]1CC[C@H](O)CC1", "note": "[Example 124, trans-4-[4-(3-{(1S)-1-[2-chloro-6-(difluoromethoxy)-3-fluorophenyl]-2-fluoroethyl}-1H-pyrrolo[2,3-b]pyridin-5-yl)-5-methyl-1H-pyrazol-1-yl]cyclohexanol]", "values": [{"measurement": "IC50", "setting": "[2]", "result": "≤ 50", "unit": "nM"}]}, {"smiles": "C[C@H](c1c(OC(F)F)ccc(F)c1Cl)c1c[nH]c2ncc(-c3cnc(N4CCC(O)CC4)n3C)cc12", "note": "[Example 125, 1-[5-(3-{(1S)-1-[2-Chloro-6-(difluoromethoxy)-3-fluorophenyl]ethyl}-1H-pyrrolo[2,3-b]pyridin-5-yl)-1-methyl-1H-imidazol-2-yl]piperidin-4-ol]", "values": [{"measurement": "IC50", "setting": "[2]", "result": "≤ 50", "unit": "nM"}]}, {"smiles": "C[C@H](c1c(OC(F)F)ccc(F)c1Cl)c1c[nH]c2ncc(-c3cnc([C@H]4CC[C@H](O)CC4)n3C)cc12", "note": "[Example 126, trans-4-[5-(3-{(1S)-1-[2-Chloro-6-(difluoromethoxy)-3-fluorophenyl]ethyl}-1H-pyrrolo[2,3-b]pyridin-5-yl)-1-methyl-1H-imidazol-2-yl]cyclohexanol]", "values": [{"measurement": "IC50", "setting": "[2]", "result": "≤ 50", "unit": "nM"}]}]}
